Test system: Human Jurkat T-cells (clone N)
Test: Jurkat T-cell activation (anti-TCR, CD69 upregulation)
Assay type: cell-based
Details: not given
Experimental: The screening process took place over three days.
On the first day of the screen, cultured cells were spun down on a centrifuge (1000 rpm, 5 minutes) and resuspended at 3.0×10^5 cells/ml in RPMI+5% FBS. On the second day of the screen, cells were spun down at 1000 rpm for 5 minutes and resuspended in RPMI+5% FBS at 1.3×10^5 cells/ml. 85 μl of this cell suspension were added to the wells of U-bottom 96 well plates (Corning) 85 μl of compound or diluted RPMI+5% FBS (as a control) only was added to each well and incubated at 37° C. for 1 hour. The cells were then stimulated with anti-TCR (C305) at: 500 ng/ml by adding a 8× solution in 25 μl to the plated cells. The cells were then incubated at 37° C. for 20 hrs.
On the third day of the screen, the plates were spun at 2500 RPM for 1 minute on a Beckman GS-6R centrifuge, and the medium was then removed. 50 μl staining solution (1:100 dilution of anti-CD69-APC antibody (Becton Dickenson) in PBS+2% FBS) was then added to each well, followed by incubation of the plates 4 degrees for 20 minutes in the dark. 150 μl of wash buffer (PBS+2% FBS) was then added to each well, and the plates were spun at 3000 RPM for 1 minute. The supernatant was again removed, and the pellet was resuspended by vortexing gently. 75 μl of PBS+2% FBS +Cytofix (1:4 dilution) was then added, the plates gently vortexed and wrap in aluminum foil. Cells from the plates were read using a flow cytometer coupled to an automated liquid handling system.
Varied concentrations of compound were compared to solvent only to determine the inhibition of T-cell activation IC50 of each compound.

| IC50 | Compound |
| --- | --- |
| 2.58 µM | O=C(NC(CO)CO)c1cc2cc(Nc3ncc(F)c(Nc4ccc5c(c4)OCCO5)n3)ccc2o1 [Compound R926785] |
| > 10 µM | CCOC(=O)COc1ccc(Nc2ncc(F)c(Nc3ccc4c(c3)OCCO4)n2)cc1 [Compound R925747] |
| 3.15 µM | CNC(=O)COc1cccc(Nc2ncc(F)c(Nc3cccc(N)c3)n2)c1 [Compound R950262] |
| 2.38 µM | O=C(COc1cccc(Nc2ncc(F)c(Nc3ccc4c(c3)OCCO4)n2)c1)NC(CO)CO [Compound R926784] |
| > 10 µM | CCOC(=O)COc1ccc(Nc2nc(Nc3ccc(OCC(=O)OCC)cc3)c(NC(=O)Nc3ccccc3)c(C(=O)OCC)n2)cc1 [Compound R926571] |
| 0.497 µM | OCCCn1ncc2cc(Nc3ncc(F)c(Nc4cccc(O)c4)n3)ccc21 [Compound R935304] |
| 19.9 µM | CCOC(=O)C(C)(C)c1ccc(Nc2ncc(F)c(Nc3cccc(O)c3)n2)cc1 [Compound R935152] |
| 1.73 µM | CNC(=O)COc1cc(Nc2ncc(F)c(Nc3ccc4cc[nH]c4c3)n2)ccc1OC [Compound R926752] |
| 2.92 µM | O=C(CNc1cccc(Nc2ncc(F)c(Nc3cccc(O)c3)n2)c1)NCCN1CCOCC1 [Compound R950226] |
| 6.97 µM | N#Cc1cnc(Nc2cccc(O)c2)nc1Nc1ccc(OCC(=O)NCC2CC2)cc1 [Compound R925845] |
| 2.02 µM | Cc1cnc(Nc2ccc(OCc3nnnn3C)cc2)nc1Nc1cccc(O)c1 [Compound R920894] |
| 9.67 µM | Cc1noc(COc2ccc(Nc3ncc(F)c(Nc4ccc(OC(C)C)cc4)n3)cc2)n1 [Compound R935142] |
| 1.98 µM | Cc1noc(COc2ccc(Nc3nc(Nc4cccc(O)c4)ncc3F)cc2)n1 [Compound R935147] |
| > 10 µM | O=C1CCOc2ccc(Nc3ncc(F)c(Nc4ccc5c(c4)C(=O)CCO5)n3)cc21 [Compound R950378] |
| 3.19 µM | NC(=O)COc1ccc(Nc2nc(Nc3ccc4c(c3)OCCO4)ncc2F)cc1 [Compound R945171] |
| 1.91 µM | CNC(=O)COc1cccc(Nc2ncc(F)c(Nc3cccc(N)c3)n2)c1 [Compound R950263] |
| > 10 µM | COc1cc(C(=O)NS(=O)(=O)c2ccccc2C)ccc1Cn1ncc2cc(Nc3ncc(F)c(Nc4ccc5c(c4)OCCO5)n3)ccc21 [Compound R935339] |
| 2.67 µM | O=C(c1cc2cc(Nc3ncc(F)c(Nc4ccc5c(c4)OCCO5)n3)ccc2o1)N1CCCNCC1 [Compound R926767] |
| 5.7 µM | COCOc1ccc(Nc2nc(Nc3cccc(O)c3)ncc2F)c(F)c1 [Compound R926680] |
| > 10 µM | CC(=O)Nc1cccc(N(C(C)=O)c2ncc(F)c(N(C(C)=O)c3cccc(NC(C)=O)c3)n2)c1 [Compound R950244] |
| 11 µM | CNC(=O)COc1cccc(Nc2ncc(F)c(Nc3ccc(Cl)c(C(F)(F)F)c3)n2)c1 [Compound R926881] |
| 3.61 µM | CNC(=O)COc1cccc(Nc2ncc(F)c(Nc3cccc(C(C)=NO)c3)n2)c1 [Compound R950373] |

| IC50 | Compound |
| --- | --- |
| 1.98 µM | CNC(=O)COc1cccc(Nc2ncc(F)c(Nc3ccc4[nH]ncc4c3)n2)c1 [Compound R935279] |
| > 10 µM | COC(=O)COc1cccc(Nc2ncc(F)c(Nc3cccc(OCC(=O)OC)c3)n2)c1 [Compound R926255] |
| 2.5 µM | CCOC(=O)CCn1ncc2ccc(Nc3ncc(F)c(Nc4ccc5c(c4)OCCO5)n3)cc21 [Compound R935286] |
| 7.58 µM | COC(=O)COc1cccc(Nc2ncc(F)c(Nc3ccc4[nH]ncc4c3)n2)c1 [Compound R935269] |
| 3.59 µM | CNC(=O)COc1cccc(Nc2ncc(F)c(Nc3ccc(OC)c(OC)c3)n2)c1 [Compound R926733] |
| 3 µM | CNC(=O)COc1cccc(Nc2nc(Nc3ccc4c(c3)NCCO4)ncc2F)c1 [Compound R909247] |
| 0.708 µM | Cn1ncc2cc(Nc3ncc(F)c(Nc4ccc5c(c4)NC(=O)C(C)(C)O5)n3)ccc21 [Compound R940338] |
| 2.09 µM | COc1cccc(Nc2nc(Nc3cccc(OCC(=O)NCC(O)CO)c3)ncc2F)c1 (stereo not drawn) [Compound R926739] |
| > 10 µM | Fc1cnc(Nc2ccc3cn[nH]c3c2)nc1Nc1ccc(OC(F)(F)F)c(Cl)c1 [Compound R935368] |
| 2.18 µM | Fc1cnc(Nc2ccc3c(c2)OCCO3)nc1Nc1ccc2cn[nH]c2c1 [Compound R935261] |
| 3.8 µM | CCOC(=O)COc1cccc(Nc2ncc(F)c(Nc3ccc4c(c3)NCCO4)n2)c1 [Compound R909242] |
| 2.17 µM | CC(C)(CO)NC(=O)COc1cccc(Nc2ncc(F)c(Nc3ccc4c(c3)OCCO4)n2)c1 [Compound R926764] |
| 12.4 µM | CN(C)C(=O)c1cc2cc(Nc3ncc(F)c(Nc4cccc(O)c4)n3)ccc2o1 [Compound R926718] |
| > 10 µM | O=C(O)COc1cccc(Nc2ncc(F)c(Nc3ccc4c(c3)OCCO4)n2)c1 [Compound R926483] |
| > 10 µM | CCOC(=O)COc1ccc(Nc2nc(Cl)c(Cl)c(Nc3ccc(OCC(=O)OCC)cc3)n2)cc1 [Compound R926569] |
| 1.23 µM | CC(C)(C)c1cccc(Nc2nc(Nc3cccc(OCC(=O)NC(CO)CO)c3)ncc2F)c1 [Compound R940296] |
| 1.82 µM | CNC(=O)COc1cccc(Nc2ncc(F)c(Nc3ccc4c(c3)N(c3ccccn3)CC(C)(C)O4)n2)c1 [Compound R940337] |
| 9.14 µM | Cc1nc(COc2cccc(Nc3nc(Nc4ccc(OCC(N)=O)cc4)ncc3F)c2)no1 [Compound R945133] |
| 14.3 µM | CCOc1ccc(Nc2nc(Nc3ccc4c(c3)OCCO4)ncc2F)cc1 [Compound R920670] |
| > 10 µM | CC(C)(CO)c1ccc(Nc2nc(Nc3ccc4c(c3)OCCO4)ncc2F)cc1 [Compound R935149] |
| 1.64 µM | CNC(=O)COc1cccc(Nc2ncc(F)c(Nc3ccc(OC)c(F)c3)n2)c1 [Compound R926892] |
| 6.2 µM | CC1Sc2ccc(Nc3ncc(F)c(Nc4cccc(O)c4)n3)cc2NC1=O (racemic) [Compound R909263] |

Same assay, conditions: Homo sapiens

| Compound | IC50 |
| --- | --- |
| O=[N+]([O-])c1cc(Nc2ncc(F)c(Nc3ccc(Cl)c([N+](=O)[O-])c3)n2)ccc1Cl [Compound R950149] | > 10 µM |
| COc1ccc([N+](=O)[O-])cc1Nc1ncc(F)c(Nc2cc([N+](=O)[O-])ccc2OC)n1 [Compound R950151] | 14.2 µM |

Same assay, conditions: Homo sapiens, Jurkat

| IC50 | Compound |
| --- | --- |
| 6.46 µM | COC(=O)c1cc(N)cc(Nc2ncc(F)c(Nc3cc(N)cc(C(=O)OC)c3)n2)c1 [Compound R950134] |
| 16.9 µM | Oc1cccc(Nc2ncc(-c3ccc4c(c3)OCO4)c(Nc3cccc(O)c3)n2)c1 [Compound R925788] |
| 5.95 µM | CC(=O)Nc1cccc(Nc2ncc(F)c(Nc3cccc(NC(C)=O)c3)n2)c1 [Compound R926682] |
| > 10 µM | CC(C)(C)OC(=O)Nc1cccc(Nc2ncc(F)c(Nc3cccc(NC(=O)OC(C)(C)C)c3)n2)c1 [Compound R950108] |
| 1.91 µM | CCOC(=O)c1cc2cc(Nc3ncc(F)c(Nc4ccc5[nH]c(C(=O)OCC)cc5c4)n3)ccc2[nH]1 [Compound R926616] |
| > 10 µM | CCOC(=O)c1nc(Nc2ccc3c(c2)OCCO3)nc(Nc2ccc3c(c2)OCCO3)c1[N+](=O)[O-] [Compound R925852] |
| 1.03 µM | O=C1COc2cc(Nc3ncc(F)c(Nc4cccc(O)c4)n3)ccc2N1 [Compound R908699] |
| > 10 µM | Fc1cnc(Nc2ccc(SC(F)(F)F)cc2)nc1Nc1ccc2c(c1)OCCO2 [Compound R926899] |
| 4.57 µM | Nc1cc(Nc2ccnc(Nc3cc(N)cc(C(F)(F)F)c3)n2)cc(C(F)(F)F)c1 [Compound R950143] |
| > 10 µM | Fc1cnc(Nc2ccc(N3CCN(Cc4ccccc4)CC3)cc2)nc1Nc1ccc(N2CCN(Cc3ccccc3)CC2)cc1 [Compound R945152] |
| > 10 µM | COCCNc1ncc(F)c(Nc2ccc3c(c2)OCCO3)n1 [Compound R926229] |
| 10.8 µM | CCOC(=O)c1cc2cc(Nc3ncc(F)c(Nc4ccc(C(C)(C)C)cc4)n3)ccc2[nH]1 [Compound R926474] |
| > 10 µM | Cc1cc(CNc2ncc(F)c(Nc3cccc(O)c3)n2)c(C)o1 [Compound R945162] |
| > 10 µM | CCOC(=O)c1nc(Nc2ccc3c(c2)OCCO3)nc(Nc2ccc3c(c2)OCCO3)c1N [Compound R925857] |
| > 10 µM | Oc1cccc(Nc2ncc(-c3ccccc3)c(Nc3cccc(O)c3)n2)c1 [Compound R925783] |
| > 10 µM | CCOC1CCCc2ccc(Nc3nc(Nc4cccc(O)c4)ncc3F)cc21 (stereo not drawn) [Compound R926942] |
| > 10 µM | COc1ccc(Nc2nc(Nc3cccc(O)c3)ncc2F)cc1OC [Compound R926147] |
| 9.64 µM | N#Cc1cccc(Nc2nc(Nc3cccc(O)c3)ncc2F)c1 [Compound R945109] |
| 7.07 µM | Fc1cnc(Nc2ccc3c(c2)OCCO3)nc1Nc1ccc(N2CCN(Cc3ccccc3)CC2)cc1 [Compound R945155] |
| > 10 µM | Fc1cnc(Nc2ccc(Cl)c(C(F)(F)F)c2)nc1Nc1ccc(Cl)c(C(F)(F)F)c1 [Compound R926039] |
| > 10 µM | Cc1ccc(-c2ccccc2)cc1Nc1ccnc(Nc2cc(-c3ccccc3)ccc2C)n1 [Compound R925807] |
| > 10 µM | Cc1cc(Nc2ncc(F)c(Nc3ccc4c(c3)OCCO4)n2)cc(C(F)(F)F)c1 [Compound R926895] |
| > 10 µM | Fc1cnc(Nc2ccc(Cl)cc2)nc1Nc1ccc(Cl)cc1 [Compound R926206] |

Reference: US8158621B2, “Methods of treating or preventing autoimmune diseases with 2,4-pyrimidinediamine compounds” (Rigel Pharmaceuticals, Inc., priority 2002, dated 2012)
